Data: patent publication US12054457B2, “Polymorphs of (2S,5R)-5-(2-chlorophenyl)-1-(2′-methoxy-[1,1′-biphenyl]-4-carbonyl)pyrrolidine-2-carboxylic acid and preparation processes thereof” (EPICS THERAPEUTICS, priority 2022, dated 2024)
Counter-ions that a name gives are not always drawn.

How the values were obtained:
Type in all cases: physicochemical
[1] = Hygroscopicity: weight gain on storage at fixed relative humidity
Excerpt: The previously described solid forms of (2S,5R)-5-(2-chlorophenyl)-1-(2′-methoxy-[1,1′-biphenyl]-4-carbonyl)pyrrolidine-2-carboxylic acid, i.e. the amorphous free acid and the corresponding Na salt, both disclosed in WO2021/250174, are hygroscopic.

[2] = Hygroscopicity by dynamic vapor sorption (DVS)
Description: The determination of the hygroscopicity of crystalline forms I and II was also evaluated by dynamic vapor sorption (DVS).
The analyses were performed on a Surface Measurements System DVS Intrinsic. The samples were placed in an open aluminum pan. The analyses were performed at 25° C. Relative humidity (RH) was scanned between 0% RH and 95% RH, with 10% RH steps (40-0-95-0-95). The stability criterion was a variation in mass lower than 0.002% on a 5 min. window, with a minimum step time of 10 min and a maximum of 100 min.

[3] = Thermal gravimetric analysis (TGA); settings: temperature range 10° C.-200° C., 10° C./min, nitrogen purge
Description: The thermal gravimetric analysis (TGA) experiments were performed on a Mettler Toledo TGA/DSC3+ apparatus. The samples (about 10-30 mg) were placed in a 100 μL aluminum sample pan and crimped with a punctured cover. […]

[4] = Competitive slurry test between form I and form II in isopropyl alcohol
Description: A competitive slurry test between form I and form II of compound (1) was carried out at 10° C., 20° C., 25° C., 30° C. and 40° C. in isopropyl alcohol.
Method. Suspensions of compound (1) under form II, in isopropyl alcohol, were first prepared and equilibrated for 30 min at each of the temperatures to be studied. About 800 μL of the saturated solutions were then sampled, filtered through a 0.2 μm HPTFE filter, and added into a vial containing 50 mg of form I and 50 mg of form II, equipped with a magnetic rod. After 10 seconds, a first sample of the solid phase is taken and analyzed by XRPD to identify the solid phase(s) present. Additional sampling are also performed until only 1 solid phase remains.

[5] = Competitive slurry test between form I and form II in n-heptane; settings: 10° C., 20° C., 25° C., 30° C. and 40° C.
Description: A competitive slurry test between form I and form II of compound (1) was carried out at 10° C., 20° C., 25° C., 30° C. and 40° C. in n-heptane.
Method. About 1 mL of n-heptane was added into vials containing 40 mg of form I and 40 mg of form II, equipped with a magnetic rod. After 10 seconds, a first sample of the solid phase is taken and analyzed by XRPD to identify the solid phase(s) present. Additional sampling are also performed until only 1 solid phase remains.

[6] = Cross-seeding tests in water and n-heptane; settings: 25° C., form II suspension seeded with form I
Description: Cross-seeding tests were carried out in water and n-heptane.
Method. Saturated solutions of form II were prepared at 25° C. in water and in n-heptane. The suspensions were then seeded with form I after 45 minutes, and kept under stirring at 25° C. The solid phases in suspensions were then periodically controlled by XRPD.

[7] = Thermodynamic stability over time

In the case of COc1ccccc1-c1ccc(C(=O)N2[C@@H](c3ccccc3Cl)CC[C@H]2C(=O)O)cc1 [Na salt, (2S,5R)-5-(2-chlorophenyl)-1-(2′-methoxy-[1,1′-biphenyl]-4-carbonyl)pyrrolidine-2-carboxylic acid], the weight gain ([1]; 40% relative humidity, after 14 h) was 7 wt % and the weight gain ([1]; 70% relative humidity, 22° C., after 14 h) was 20 wt %.

For COc1ccccc1-c1ccc(C(=O)N2[C@@H](c3ccccc3Cl)CC[C@H]2C(=O)O)cc1 [form II, (2S,5R)-5-(2-chlorophenyl)-1-(2′-methoxy-[1,1′-biphenyl]-4-carbonyl)pyrrolidine-2-carboxylic acid], the “maximum weight gain at 95% RH” value ([2]; DVS, 25° C., first sorption stage (0% RH to 95% RH), listed as crystalline form II) was “+0.4%”, the “weight loss (TGA)” value ([3]; listed as crystalline form II) was −0.2% and the “solid phase present in suspension (XRPD)” value ([4]; 10-40° C., first sampling after 10 seconds) was “not visible anymore in the suspensions since the first sampling”. The “solid phase conversion (XRPD)” value [5] was “conversion of form II into form I”.

In the case of COc1ccccc1-c1ccc(C(=O)N2[C@@H](c3ccccc3Cl)CC[C@H]2C(=O)O)cc1 [amorphous free acid, (2S,5R)-5-(2-chlorophenyl)-1-(2′-methoxy-[1,1′-biphenyl]-4-carbonyl)pyrrolidine-2-carboxylic acid], the weight gain ([1]; 40% relative humidity, after 2 days) was 3 wt %, the weight gain ([1]; 70-75% relative humidity, room temperature, after 14 h) was 8 wt % and the “hygroscopicity (in words)” value ([1]; previously described solid forms) was “hygroscopic”.

With COc1ccccc1-c1ccc(C(=O)N2[C@@H](c3ccccc3Cl)CC[C@H]2C(=O)O)cc1 [form I, (2S,5R)-5-(2-chlorophenyl)-1-(2′-methoxy-[1,1′-biphenyl]-4-carbonyl)pyrrolidine-2-carboxylic acid] the weight gain ([1]; 80% relative humidity, 25° C., after 10 days) was 0.09 wt %, the “hygroscopicity (conclusion in words)” value ([2]; DVS and humidity exposure) was “non-hygroscopic” and the “weight loss on first desorption stage” value ([2]; DVS, 25° C., 40% RH to 0% RH) was −0.1%. For the same compound, the “weight gain at the end of the step at 70% RH” value ([2]; DVS, 25° C., first sorption stage (0% RH to 95% RH)) was “+0.1%”, the “maximum weight gain at 95% RH” value ([2]; DVS, 25° C., first sorption stage (0% RH to 95% RH), listed as crystalline form I) was “+0.7%” and the “weight loss (TGA)” value ([3]; listed as crystalline form I) was −0.14%. The “relative stability of the forms” value ([4]; 10° C., 20° C., 25° C., 30° C. and 40° C.) was “more stable than form II”, the “relative stability of the forms” value [6] was “greater stability of form I vs. form II” and the “time for which the form is thermodynamically stable” value [7] was “at least 6 months”.
